Molecules are shown by their SMILES.

Here are results for 1 compound from patent publication US9598387B2 (Southern Research Institute, priority 2012, dated 2017).

The subject of one assay is Rats. Nature of the assay: Cue-induced reinstatement of cocaine-seeking. Format: in vivo, rat. Particulars: 3 doses ip 20 minutes before reinstatement session. As for the experimental part: Rats were trained to self-administer cocaine (1.0 mg/kg/injection) under a FR1 schedule of reinforcement in daily 3-h sessions and, after stable responding was established (as described above) the schedule was changed to FR3. After stable responding under the FR3 schedule was established, extinction training began. Stable responding was defined as follows: 12 consecutive sessions in which total rewards per session was greater than 20 and in which total rewards per session for the last three sessions was within ±10% of the mean of the three sessions. […] After extinction criteria were met each rat was tested in one 1-h reinstatement session; each rat received an ip injection of vehicle or one of 3 doses of the test compound and 20 minutes later was placed in the operant chamber. At the start of the reinstatement session the cocaine-associated cues (light on for 20 s and pump on for 4.5 s) were presented twice, once at 25 sec and again at 2 min into the session. Presses on the active lever illuminated the light and activated the pump.

Another assay has as its target D3R (Homo sapiens (Human), UniProt P35462). Nature of the assay: β-Arrestin Recruitment Assay, U2OS DRD3. Format: cell-based. The conditions noted are these: antagonist vs EC80 8 nM PD128907, U2OS DRD3 cells; read-out: D3 IC50. The method, then: Antagonist potency of the compounds against agonist induced recruitment of β-arrestin by D3R and D2LR was measured using DiscoverRx PathHunter eXpress kits. […] After incubation at 37° C. for 90 min, the DiscoveRx detection reagent was added, the plates were incubated at room temperature for 60 min and the luminescence was measured on a Synergy 4 plate reader (BioTek). The data were plotted and the agonist EC80 values were calculated using GraphPad Prism software. For antagonist activity, the cells were plated as described above and treated with multiple concentrations (starting from 500 nM, half log dilution, 10 dose points) of the test compounds in Plating Reagent with 0.1% DMSO.

D3R, sequence (P35462 whole entry): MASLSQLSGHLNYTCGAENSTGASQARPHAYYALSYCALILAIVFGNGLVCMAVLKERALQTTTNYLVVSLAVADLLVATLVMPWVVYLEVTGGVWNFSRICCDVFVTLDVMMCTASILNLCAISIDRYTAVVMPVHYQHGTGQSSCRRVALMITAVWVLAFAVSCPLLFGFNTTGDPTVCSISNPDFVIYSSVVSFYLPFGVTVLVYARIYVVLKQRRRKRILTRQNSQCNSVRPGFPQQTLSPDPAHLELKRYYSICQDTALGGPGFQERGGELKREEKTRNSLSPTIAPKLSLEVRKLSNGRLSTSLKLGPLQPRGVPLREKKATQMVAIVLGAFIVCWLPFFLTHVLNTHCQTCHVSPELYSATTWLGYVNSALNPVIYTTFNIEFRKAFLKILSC

Take `CC(C)(C)c1nc(N2CCN(CCCCNC(=O)c3cn4ccccc4n3)CC2)cc(C(F)(F)F)n1` [Compound 113, N-(4-(4-(2-(tert-Butyl)-6-(trifluoromethyl)pyrimidin-4-yl)piperazin-1-yl)butyl)imidazo[1,2-a]pyridine-2-carboxamide]: the “cue-induced reinstatement (active lever presses, 1-h test)” value in the assay with Rats was “strongly reduced in a dose-related fashion”. In addition, at D3R, the IC50 is 0.56 ± 0.12 nM.
